The values that follow come from patent US10870652B2, “Compounds and methods for modulating bruton's tyrosine kinase” (CORVUS PHARMACEUTICALS, INC., priority 2016, dated 2020).

Holding throughout (format): biochemical
One experiment deals with T1, ITK (Homo sapiens, UniProt Q08881).
T1 sequence (Q08881 1-620): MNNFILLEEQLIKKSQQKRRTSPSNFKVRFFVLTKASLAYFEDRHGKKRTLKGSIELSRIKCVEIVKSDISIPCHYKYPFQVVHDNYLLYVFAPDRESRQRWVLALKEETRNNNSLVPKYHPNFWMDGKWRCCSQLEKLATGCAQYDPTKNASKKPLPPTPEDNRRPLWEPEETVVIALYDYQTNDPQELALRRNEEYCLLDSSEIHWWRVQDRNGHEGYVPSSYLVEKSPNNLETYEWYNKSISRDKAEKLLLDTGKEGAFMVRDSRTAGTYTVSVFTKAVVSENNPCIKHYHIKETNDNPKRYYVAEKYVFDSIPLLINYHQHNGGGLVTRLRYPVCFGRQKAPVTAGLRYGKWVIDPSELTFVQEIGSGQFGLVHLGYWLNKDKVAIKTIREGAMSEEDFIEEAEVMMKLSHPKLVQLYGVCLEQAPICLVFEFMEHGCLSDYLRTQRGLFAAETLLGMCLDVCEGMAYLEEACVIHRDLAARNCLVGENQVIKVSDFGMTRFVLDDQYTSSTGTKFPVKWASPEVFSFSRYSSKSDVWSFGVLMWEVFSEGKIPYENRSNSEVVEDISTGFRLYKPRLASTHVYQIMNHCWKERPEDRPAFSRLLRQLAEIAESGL
Briefly: ITK IC50 kinase inhibition assay.

The target of the next experiment is T2, JAK3 (Homo sapiens, UniProt P52333).
T2 sequence (P52333 1-1124): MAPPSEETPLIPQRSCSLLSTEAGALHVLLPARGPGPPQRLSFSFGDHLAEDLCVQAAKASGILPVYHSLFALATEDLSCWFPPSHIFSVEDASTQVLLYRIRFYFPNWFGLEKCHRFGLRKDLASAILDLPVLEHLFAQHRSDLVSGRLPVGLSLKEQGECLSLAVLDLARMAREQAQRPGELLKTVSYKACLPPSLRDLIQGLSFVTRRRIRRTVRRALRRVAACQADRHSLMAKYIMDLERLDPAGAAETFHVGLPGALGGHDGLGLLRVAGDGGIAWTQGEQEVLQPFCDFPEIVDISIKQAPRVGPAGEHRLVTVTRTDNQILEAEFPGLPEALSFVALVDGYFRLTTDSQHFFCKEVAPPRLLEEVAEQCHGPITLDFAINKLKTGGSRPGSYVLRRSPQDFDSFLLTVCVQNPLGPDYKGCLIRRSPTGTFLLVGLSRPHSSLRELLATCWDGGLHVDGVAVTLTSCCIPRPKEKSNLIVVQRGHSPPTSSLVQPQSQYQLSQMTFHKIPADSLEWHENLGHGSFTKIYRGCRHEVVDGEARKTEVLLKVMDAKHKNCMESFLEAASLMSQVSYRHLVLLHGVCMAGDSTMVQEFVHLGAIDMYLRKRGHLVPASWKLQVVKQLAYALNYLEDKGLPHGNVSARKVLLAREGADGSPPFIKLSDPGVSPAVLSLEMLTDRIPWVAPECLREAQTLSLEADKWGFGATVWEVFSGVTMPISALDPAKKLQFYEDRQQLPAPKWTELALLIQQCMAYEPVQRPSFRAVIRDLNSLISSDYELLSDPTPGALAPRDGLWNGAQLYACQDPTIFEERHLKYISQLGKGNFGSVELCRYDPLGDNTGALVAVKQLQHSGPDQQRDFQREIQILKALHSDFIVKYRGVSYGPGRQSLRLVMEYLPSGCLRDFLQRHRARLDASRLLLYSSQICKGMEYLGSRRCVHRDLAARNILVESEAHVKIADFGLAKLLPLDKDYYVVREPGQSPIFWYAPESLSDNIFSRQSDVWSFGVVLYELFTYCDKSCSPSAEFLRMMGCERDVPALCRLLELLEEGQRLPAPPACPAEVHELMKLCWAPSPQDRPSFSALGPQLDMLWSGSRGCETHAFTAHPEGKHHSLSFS
Briefly: JAK3 IC50 kinase inhibition assay.

Another experiment deals with T3, TXK (Homo sapiens, UniProt P42681).
T3 sequence (P42681 1-527): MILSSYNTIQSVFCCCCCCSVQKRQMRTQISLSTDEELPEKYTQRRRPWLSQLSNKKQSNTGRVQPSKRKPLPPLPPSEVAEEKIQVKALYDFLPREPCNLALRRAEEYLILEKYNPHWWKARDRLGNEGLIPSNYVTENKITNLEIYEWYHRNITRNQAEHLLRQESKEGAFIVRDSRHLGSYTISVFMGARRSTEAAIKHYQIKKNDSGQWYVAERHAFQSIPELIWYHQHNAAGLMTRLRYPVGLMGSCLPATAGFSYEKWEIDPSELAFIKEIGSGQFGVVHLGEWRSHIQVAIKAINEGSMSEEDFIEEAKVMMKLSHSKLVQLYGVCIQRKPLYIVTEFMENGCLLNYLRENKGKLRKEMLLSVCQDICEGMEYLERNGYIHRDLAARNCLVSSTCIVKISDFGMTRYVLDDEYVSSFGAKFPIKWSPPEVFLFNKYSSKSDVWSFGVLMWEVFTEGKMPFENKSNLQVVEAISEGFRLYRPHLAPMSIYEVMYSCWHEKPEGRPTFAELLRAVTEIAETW
Description: TXK IC50 kinase inhibition assay.

A further experiment deals with BTK (Homo sapiens, UniProt Q06187). Briefly: BTK IC50 kinase inhibition assay.

Molecules are shown by their SMILES. pIC50: −log10 of the molar value. Where only a bound is given, the exact number is not on record here.

BTK, sequence (Q06187 whole entry): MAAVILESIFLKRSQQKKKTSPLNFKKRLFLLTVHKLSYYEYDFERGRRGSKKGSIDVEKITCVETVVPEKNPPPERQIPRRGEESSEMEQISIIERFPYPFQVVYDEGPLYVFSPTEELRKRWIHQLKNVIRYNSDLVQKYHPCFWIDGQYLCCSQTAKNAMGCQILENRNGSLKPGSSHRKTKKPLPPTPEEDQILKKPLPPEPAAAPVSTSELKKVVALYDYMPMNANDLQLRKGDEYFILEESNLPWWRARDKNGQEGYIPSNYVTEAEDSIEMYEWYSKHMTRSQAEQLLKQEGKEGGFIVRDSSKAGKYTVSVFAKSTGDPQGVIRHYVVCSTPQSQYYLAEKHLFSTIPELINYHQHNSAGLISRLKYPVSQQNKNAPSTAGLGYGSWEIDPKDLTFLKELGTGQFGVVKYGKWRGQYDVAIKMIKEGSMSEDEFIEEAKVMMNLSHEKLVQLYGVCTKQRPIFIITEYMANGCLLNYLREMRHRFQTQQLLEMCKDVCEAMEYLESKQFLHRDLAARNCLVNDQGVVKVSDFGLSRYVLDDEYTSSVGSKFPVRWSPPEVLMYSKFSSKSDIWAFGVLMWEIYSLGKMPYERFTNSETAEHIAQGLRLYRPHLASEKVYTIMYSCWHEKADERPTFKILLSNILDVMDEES

For the molecule `CC#CC(=O)N1CCC[C@H]1Cn1nc(-c2ccc(Oc3ccccc3)cc2F)c2cncnc21` [Compound A20, (S)-1-(2-((3-(2-fluoro-4-phenoxyphenyl)-1H-pyrazolo[3,4-d]pyrimidin-1-yl)methyl)pyrrolidin-1-yl)but-2-yn-1-one], the pIC50 against ITK was < 6.30; against JAK3, < 6.30; against TXK, < 6.30; on BTK, > 7.00.
Regarding `C=CC(=O)N1CCC[C@@]1(C)Cn1nc(-c2ccc(Oc3ccccc3)cc2F)c2cncnc21` [Compound A52, (S)-1-(2-((3-(2-fluoro-4-phenoxyphenyl)-1H-pyrazolo[3,4-d]pyrimidin-1-yl)methyl)-2-methylpyrrolidin-1-yl)prop-2-en-1-one], the pIC50 on ITK was < 6.30; against JAK3, < 6.30; on TXK, > 7.00; at BTK, > 7.00.
Regarding `C=CC(=O)N1CCC[C@H]1Cn1nc(-c2ccc(Oc3ccccc3)cc2)c2cncc(F)c21` [Compound A27, (S)-1-(2-((7-fluoro-3-(4-phenoxyphenyl)-1H-pyrazolo[4,3-c]pyridin-1-yl)methyl)pyrrolidin-1-yl)prop-2-en-1-one], the pIC50 against ITK was < 6.30; at JAK3 it was < 6.30; on TXK it was > 7.00; at BTK, > 7.00.
`C=CC(=O)N1CC(Cn2nc(-c3ccc(Oc4ccccc4)cc3)c3cncnc32)C1` [Compound A35, 1-(3-((3-(4-phenoxyphenyl)-1H-pyrazolo[3,4-d]pyrimidin-1-yl)methyl)azetidin-1-yl)prop-2-en-1-one]: the negative logarithm of the IC50 (pIC50) at ITK is < 6.30; against JAK3 it was < 6.30; against TXK, 6.30 to 7.00; on BTK it was > 7.00.
Consider `C=CC(=O)N1CC(C)(C)C[C@H]1Cn1nc(-c2ccc(Oc3ccccc3)cc2)c2cncnc21` [Compound A49, (S)-1-(4,4-dimethyl-2-((3-(4-phenoxyphenyl)-1H-pyrazolo[3,4-d]pyrimidin-1-yl)methyl)pyrrolidin-1-yl)prop-2-en-1-one], for which the pIC50 is < 6.30 against ITK, < 6.30 against JAK3, > 7.00 against TXK and > 7.00 at BTK.
Take `C=CC(=O)N1CCC[C@@H](n2nc(-c3ccc(Oc4ccccc4)cc3C#N)c3cncnc32)C1` [Compound A33, (R)-2-(1-(1-acryloylpiperidin-3-yl)-H-pyrazolo[3,4-d]pyrimidin-3-yl)-5-phenoxybenzonitrile]: the pIC50 was < 6.30 on ITK, < 6.30 on JAK3, < 6.30 at TXK and 6.30 to 7.00 at BTK.
Take `C=CC(=O)N1CC[C@@H]1Cn1nc(-c2ccc(Oc3ccccc3)cc2)c2cncnc21` [Compound A53, (R)-1-(2-((3-(4-phenoxyphenyl)-1H-pyrazolo[3,4-d]pyrimidin-1-yl)methyl)azetidin-1-yl)prop-2-en-1-one]: the pIC50 against ITK is < 6.30; against JAK3 it was < 6.30; against TXK, > 7.00; against BTK, > 7.00.
Consider `C=CC(=O)N1CC[C@H](Cn2nc(-c3ccc(Oc4ccccc4)cc3)c3cncnc32)C1` [Compound A15, (S)-1-(3-((3-(4-phenoxyphenyl)-1H-pyrazolo[3,4-d]pyrimidin-1-yl)methyl)pyrrolidin-1-yl)prop-2-en-1-one], for which the pIC50 on ITK was < 6.30; against JAK3 it was < 6.30; against TXK, 6.30 to 7.00; on BTK it was > 7.00.
With `C=CC(=O)N1CCC[C@H]1c1nc(-c2ccc(Oc3ccccc3)cc2)c2cnccn12` [Compound A29, (S)-1-(2-(1-(4-phenoxyphenyl)imidazo[1,5-a]pyrazin-3-yl)pyrrolidin-1-yl)prop-2-en-1-one], the pIC50 against ITK is < 6.30; against JAK3, < 6.30; at TXK, 6.30 to 7.00; on BTK, > 7.00.
For `C=CC(=O)N1CC[C@@H](n2nc(-c3ccc(Oc4ccccc4)cc3)c3cncnc32)C1` [Compound A6, (R)-1-(3-(3-(4-phenoxyphenyl)-1H-pyrazolo[3,4-d]pyrimidin-1-yl)pyrrolidin-1-yl)prop-2-en-1-one], the pIC50 is < 6.30 against ITK, < 6.30 against JAK3, > 7.00 against TXK and > 7.00 on BTK.
With `C=CC(=O)N1CCC(n2nc(-c3ccc(Oc4ccccc4)cc3)c3cncnc32)CC1` [Compound A36, 1-(4-(3-(4-phenoxyphenyl)-1H-pyrazolo[3,4-d]pyrimidin-1-yl)piperidin-1-yl)prop-2-en-1-one], the pIC50 is < 6.30 on ITK, < 6.30 at JAK3, 6.30 to 7.00 at TXK and 6.30 to 7.00 on BTK.
Take `C=C(C)C(=O)N1CCC[C@@H](n2nc(-c3ccc(Oc4ccccc4)cc3)c3cncnc32)C1` [Compound A21, (R)-2-methyl-1-(3-(3-(4-phenoxyphenyl)-1H-pyrazolo[3,4-d]pyrimidin-1-yl)piperidin-1-yl)prop-2-en-1-one]: the pIC50 at ITK, against JAK3, on TXK and at BTK was < 6.30 throughout.
Take `C=CC(=O)NCCn1nc(-c2ccc(Oc3ccccc3)cc2)c2cncnc21` [Compound A42, N-(2-(3-(4-phenoxyphenyl)-1H-pyrazolo[3,4-d]pyrimidin-1-yl)ethyl)acrylamide]: the pIC50 was < 6.30 against ITK, < 6.30 on JAK3, < 6.30 at TXK and 6.30 to 7.00 on BTK.
`C=CC(=O)N1CCC[C@@H](n2nc(-c3ccc(Oc4cccc(F)c4)cc3)c3cncnc32)C1` [Compound A39, (R)-1-(3-(3-(4-(3-fluorophenoxy)phenyl)-1H-pyrazolo[3,4-d]pyrimidin-1-yl)piperidin-1-yl)prop-2-en-1-one]: the pIC50 was < 6.30 on ITK, < 6.30 at JAK3, > 7.00 at TXK and > 7.00 at BTK.
With `C=CC(=O)N[C@@H](C)Cn1nc(-c2ccc(Oc3ccccc3)cc2)c2cncnc21` [Compound A43, (S)—N-(1-(3-(4-phenoxyphenyl)-1H-pyrazolo[3,4-d]pyrimidin-1-yl)propan-2-yl)acrylamide], the negative logarithm of the IC50 (pIC50) on ITK is < 6.30; against JAK3 it was < 6.30; against TXK, 6.30 to 7.00; at BTK, > 7.00.
Regarding `C=CC(=O)N1CCC[C@@H](n2nc(-c3ccc(Oc4ccccc4)cc3F)c3cncnc32)C1` [Compound A2, (R)-1-(3-(3-(2-fluoro-4-phenoxyphenyl)-1H-pyrazolo[3,4-d]pyrimidin-1-yl)piperidin-1-yl)prop-2-en-1-one], the pIC50 is < 6.30 on ITK, 6.30 to 7.00 at JAK3, > 7.00 against TXK and > 7.00 against BTK.
